Source: patent publication US20130310362A1, “FUSED PYRIMIDINES” (BAYER PHARMA AKTIEGESELLSCHAFT, priority 2009, published 2013)

Tests used:
[1] = test system: Akt phosphorylation (Ser473) in MCF7 cells; test: Cellular PI3K/Akt pathway assay (Phospho-Akt1 (Ser473) sandwich ELISA); format: cell-based; details: Homo sapiens, β-Heregulin stimulated, 48 h incubation, read-out: IC50 p-Akt (Biological Assay 5.0)
Method: Biological Assay 5.0: Cellular PI3K/Akt Pathway Assay
In order to study the cellular activity of the compounds according to the present invention, an Enzyme Linked Immunosorbent Assay (ELISA)-based assay may be used to investigate the inhibitory effect on Akt phosphorylation.
The ELISA Kit detects endogenous levels of phosphorylated Akt protein. […] After incubation with cell lysates, the coated antibody captures the phosphorylated Akt protein. […] The magnitude of optical density for this developed color is proportional to the quantity of phosphorylated Akt protein. MCF7 cells (ATCC HTB-22) are seeded into 96 well fate bottom plates at a density of 10000 cells/well. 24 hours after seeding, the cells are serum starved using low-serum medium (IMEM media including 0.1% charcoal treated FCS (FCS: fetal calf serum)). After 24 hours 1 μl each of the compound dilutions (test compounds were dissolved as 10 mM solutions in dimethylsulfoxide (DMSO) and subsequently diluted) are added into each well of the 96 well plates and incubated for 48 h at 37° C. in a humidified athmosphere containing 5% CO2. To stimulate Akt phosphorylation, β-Heregulin (20 ng/mL β-HRG) is added in parallel to the compounds. Wells containing unstimulated control cells (no β-Heregulin stimulation) are incubated with or without the diluted compound. Wells containing untreated control cells (no compound) are filled with medium containing 0.5% v:v DMSO and are or are not stimulated with 3-Heregulin.
Cells are harvested and lysed with brief sonification in 1× cell lysis buffer (20 mM Tris (pH7.5), 150 mM NaCl, 1 mM ethylene diaminetetraacetate (EDTA), 1 mM ethylene glycolbis(2-aminoethyl)-N,N,N′,N′-tetraacetic acid (EGTA), 1 vol % Triton X-100, 2.5 mM sodium pyrophosphate, 1 mM β-glycerolphosphate, 1 mM Na3VO4, 1 μg/mL leupeptin). The lysate is centrifuged for 10 min. at 4° C. and the supernatant is transferred to a new tube. […] The absorbance is measured at λ=450 nm (Wallac Victor2; Perkin Elmer, USA) within 30 min. after adding the STOP solution. […]

[2] = target: T1, human recombinant kinase full-length Akt1 (Homo sapiens, UniProt P31749); test: Akt1 kinase assay (TR-FRET); format: biochemical; details: 10 μM ATP, 1 μM peptide substrate, 60 min at 22° C.; read-out: IC50 Akt1 Biological Assay 1.0)
T1 construct: human recombinant kinase full-length Akt1; His; purchased Invitrogen PV 3599; host or cells: insect cells
Text: Biological Assay 1.0: Akt1 Kinase Assay
Akt1 inhibitory activity of compounds of the present invention may be quantified employing the Akt1 TR-FRET assay as described in the following paragraphs.
His-tagged human recombinant kinase full-length Akt1 expressed in insect cells was purchased form Invitrogen (part number PV 3599). As substrate for the kinase reaction the biotinylated peptide biotin-Ahx-KKLNRTLSFAEPG (C-terminus in amide form) was used which can be purchased e.g. from the company Biosynthan GmbH (Berlin-Buch, Germany).
(§1) For the assay 50 nl of a 100 fold concentrated solution of the test compound in DMSO was pipetted into a black low volume 384 well microtiter plate (Greiner Bio-One, Frickenhausen, Germany), 2 μl of a solution of Akt1 in assay buffer [50 mM TRIS/HCl pH 7.5, 5 mM MgCl2, 1 mM dithiothreitol, 0.02% (v/v) Triton X-100 (Sigma)] were added and the mixture was incubated for 15 min at 22° C. to allow pre-binding of the test compounds to the enzyme before the start of the kinase reaction. Then the kinase reaction was started by the addition of 3 μl of a solution of adenosine-tri-phosphate (ATP, 16.7 μM=>final conc. in the 5 μl assay volume is 10 μM) and substrate (1.67 μM=>final conc. in the 5 μl assay volume is 1 μM) in assay buffer and the resulting mixture was incubated for a reaction time of 60 min at 22° C. The concentration of Akt1 in the assay was adjusted depending of the activity of the enzyme lot and was chosen appropriate to have the assay in the linear range, typical enzyme concentrations were in the range of about 0.05 ng/μl (final conc. in the 5 μl assay volume).
(§2) The reaction was stopped by the addition of 5 μl of a solution of HTRF detection reagents (200 nM streptavidine-XL665 [Cisbio] and 1.5 nM anti-phosho-Serine antibody [Millipore, cat. #35-001] and 0.75 nM LANCE Eu-W 1024 labeled anti-mouse IgG antibody [Perkin Elmer]) in an aqueous EDTA-solution (100 mM EDTA, 0.1% (w/v) bovine serum albumin in 50 mM HEPES/NaOH pH 7.5). The resulting mixture was incubated 1 h at 22° C. to allow the binding of the biotinylated phosphorylated peptide to the streptavidine-XL665 and the antibodies. Subsequently the amount of phosphorylated substrate was evaluated by measurement of the resonance energy transfer from the anti-mouse-IgG-Eu-Chelate to the streptavidine-XL665. Therefore, the fluorescence emissions at 620 nm and 665 nm after excitation at 350 nm was measured in a HTRF reader, e.g. a Rubystar (BMG Labtechnologies, Offenburg, Germany) or a Viewlux (Perkin-Elmer). The ratio of the emissions at 665 nm and at […] was taken as the measure for the amount of phosphorylated substrate. The data were normalised (enzyme reaction without inhibitor=0% inhibition, all other assay components but no enzyme=100% inhibition). Normally test compound were tested on the same microtiter plate at 10 different concentrations in the range of 20 μM to 1 nM (20 μM, 6.7 μM, 2.2 μM, 0.74 μM, 0.25 μM, 82 nM, 27 nM, 9.2 nM, 3.1 nM and 1 nM, dilution series prepared before the assay at the level of the 100 fold conc. stock solutions by serial 1:3 dilutions) in duplicate values for each concentration and 1050 values were calculated by a 4 parameter fit using an inhouse software.

[3] = target: T2, human recombinant kinase full-length Akt2 (Homo sapiens, UniProt P31751); test: Akt2 kinase assay (TR-FRET); format: biochemical; details: Akt2 activated by PDK1, 10 μM ATP, 1 μM peptide substrate, 60 min at 22° C.; read-out: IC50 Akt2 (Biological Assay 2.0)
T2 construct: human recombinant kinase full-length Akt2; His; purchased Invitrogen PV 3975; host or cells: insect cells
Text: Biological Assay 2.0: Akt2 Kinase Assay
Akt2 inhibitory activity of compounds of the present invention was quantified employing the Akt2 TR-FRET assay as described in the following paragraphs.
as §1, with “His-tagged human recombinant kinase full-length Akt2 expressed in insect cells and activated by PDK1 was purchased form Invitrogen (part number PV 3975). As substrate for the kinase reaction the biotinylated peptide biotin-Ahx-KKLNRTLSFAEPG (C-terminus in amide form) was used which can be purchased e.g. from the company Biosynthan GmbH (Berlin-Buch, Germany). For” for “For”, “Akt2” for “Akt1”, “0.2” for “0.05”
as §2, with “a TR-FRET” for “a HTRF”, “inhibition).” for “inhibition). Normally test compound were tested on the same microtiter plate at 10 different concentrations in the range of 20 μM to 1 nM (20 μM, 6.7 μM, 2.2 μM, 0.74 μM, 0.25 μM, 82 nM, 27 nM, 9.2 nM, 3.1 nM and 1 nM, dilution series prepared before the assay at the level of the 100 fold conc. stock solutions by serial 1:3 dilutions) in duplicate values for each concentration and 1050 values were calculated by a 4 parameter fit using an inhouse software.”

T2 sequence (P31751 whole entry): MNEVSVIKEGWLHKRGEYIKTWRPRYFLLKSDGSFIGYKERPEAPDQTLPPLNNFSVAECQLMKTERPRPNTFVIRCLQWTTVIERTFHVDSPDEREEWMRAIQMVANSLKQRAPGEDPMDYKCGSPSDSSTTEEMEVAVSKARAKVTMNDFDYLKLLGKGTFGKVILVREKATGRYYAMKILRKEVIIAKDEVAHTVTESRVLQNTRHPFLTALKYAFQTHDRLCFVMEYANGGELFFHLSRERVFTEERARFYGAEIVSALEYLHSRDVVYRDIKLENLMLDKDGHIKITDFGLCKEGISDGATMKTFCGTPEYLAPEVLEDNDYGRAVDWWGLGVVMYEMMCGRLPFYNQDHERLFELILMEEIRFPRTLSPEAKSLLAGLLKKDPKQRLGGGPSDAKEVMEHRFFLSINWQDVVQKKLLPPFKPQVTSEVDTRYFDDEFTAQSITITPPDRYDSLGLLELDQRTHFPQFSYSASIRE
T1 sequence (P31749 whole entry): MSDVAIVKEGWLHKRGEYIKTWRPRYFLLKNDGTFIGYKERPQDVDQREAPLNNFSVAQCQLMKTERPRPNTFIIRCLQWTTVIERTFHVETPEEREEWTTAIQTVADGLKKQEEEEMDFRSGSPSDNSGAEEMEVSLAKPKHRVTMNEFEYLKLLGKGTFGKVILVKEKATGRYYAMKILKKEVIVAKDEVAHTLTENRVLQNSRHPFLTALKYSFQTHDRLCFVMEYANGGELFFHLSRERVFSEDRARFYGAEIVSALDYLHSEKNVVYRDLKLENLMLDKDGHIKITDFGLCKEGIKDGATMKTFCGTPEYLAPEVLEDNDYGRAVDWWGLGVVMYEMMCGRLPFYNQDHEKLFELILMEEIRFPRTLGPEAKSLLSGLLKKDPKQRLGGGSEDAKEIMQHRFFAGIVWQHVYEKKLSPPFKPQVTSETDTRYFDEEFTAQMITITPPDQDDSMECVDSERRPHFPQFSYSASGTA

| IC50 [1] | IC50 [2] | IC50 [3] | Structure (SMILES) |
| --- | --- | --- | --- |
| < 0.5 µM |  |  | Cc1nnc2c(-c3ccccc3)c(-c3ccc(CN4CCC(c5n[nH]c(-c6ccccn6)n5)CC4)cc3)ncn12 [Example 4.0, 3-methyl-8-phenyl-7-{4-[4-(5-pyridin-2-yl-1H-[1,2,4]triazol-3-yl)-piperidin-1-ylmethyl]-phenyl}-[1,2,4]triazolo[4,3-c]pyrimidine] |
|  | 0.003 µM | 0.027 µM | Cc1ccc(-c2nc(C3CCN(Cc4ccc(-c5nc(C)n6ccnc6c5-c5ccccc5)cc4)CC3)n[nH]2)nc1C [Example 5.0, 7-(4-{4-[5-(5,6-dimethyl-pyridin-2-yl)-1H-[1,2,4]triazol-3-yl]-piperidin-1-ylmethyl}-phenyl)-5-methyl-8-phenyl-imidazo[1,2-c]pyrimidine] |
|  | 0.003 µM | 0.081 µM | Cc1nc(-c2ccc(CN3CC(c4n[nH]c(-c5ccccn5)n4)C3)cc2)c(-c2ccccc2)c2nccn12 [Example 6.0, 5-methyl-8-phenyl-7-{4-[3-(5-pyridin-2-yl-1H-[1,2,4]triazol-3-yl)-azetidin-1-ylmethyl]-phenyl}-imidazo[1,2-c]pyrimidine] |
|  | 0.012 µM | 0.334 µM | Cc1nc(-c2ccc(CN3CCC(c4n[nH]c(-c5cnccn5)n4)CC3)cc2)c(-c2ccccc2)c2nccn12 [Example 7.0, 5-methyl-8-phenyl-7-{4-[4-(5-pyrazin-2-yl-1H-[1,2,4]triazol-3-yl)-piperidin-1-ylmethyl]-phenyl}-imidazo[1,2-c]pyrimidine] |
|  | 0.014 µM | 0.414 µM | Cc1nc(-c2ccc(CN3CCC(c4n[nH]c(-c5ncccn5)n4)CC3)cc2)c(-c2ccccc2)c2nccn12 [Example 8.0, 5-methyl-8-phenyl-7-{4-[4-(5-pyrimidin-2-yl-1H-[1,2,4]triazol-3-yl)-piperidin-1-ylmethyl]-phenyl}-imidazo[1,2-c]pyrimidine] |
|  | 0.018 µM | 0.185 µM | Brc1ccc(-c2nc(C3CCN(Cc4ccc(-c5ncn6ccnc6c5-c5ccccc5)cc4)CC3)n[nH]2)nc1 [Example 9.0, 7-(4-{4-[5-(5-bromo-pyridin-2-yl)-1H-[1,2,4]triazol-3-yl]-piperidin-1-ylmethyl}-phenyl)-8-phenyl-imidazo[1,2-c]pyrimidine] |
|  | 0.007 µM | 0.038 µM | Cc1ccc(-c2nc(C3CCN(Cc4ccc(-c5ncn6ccnc6c5-c5ccccc5)cc4)CC3)n[nH]2)nc1C [Example 10.0, 7-(4-{4-[5-(5,6-dimethyl-pyridin-2-yl)-1H-[1,2,4]triazol-3-yl]-piperidin-1-ylmethyl}-phenyl)-8-phenyl-imidazo[1,2-c]pyrimidine] |
|  | 0.029 µM | 0.445 µM | c1ccc(-c2c(-c3ccc(CN4CCC(c5n[nH]c(-c6cnccn6)n5)CC4)cc3)ncn3ccnc23)cc1 [Example 11.0, 8-phenyl-7-{4-[4-(5-pyrazin-2-yl-1H-[1,2,4]triazol-3-yl)-piperidin-1-ylmethyl]-phenyl}-imidazo[1,2-c]pyrimidine] |
|  | 0.019 µM | 0.098 µM | Fc1ccc(-c2nc(C3CCN(Cc4ccc(-c5ncn6ccnc6c5-c5ccccc5)cc4)CC3)n[nH]2)nc1 [Example 11.1, 7-(4-{4-[5-(5-fluoro-pyridin-2-yl)-1H-[1,2,4]triazol-3-yl]-piperidin-1-ylmethyl}-phenyl)-8-phenyl-imidazo[1,2-c]pyrimidine] |
|  | 0.008 µM | 0.05 µM | Cc1ccc(-c2nc(C3CCN(Cc4ccc(-c5ncn6ccnc6c5-c5ccccc5)cc4)CC3)n[nH]2)nc1 [Example 12.0, 7-(4-{4-[5-(5-methyl-pyridin-2-yl)-1H-[1,2,4]triazol-3-yl]-piperidin-1-ylmethyl}-phenyl)-8-phenyl-imidazo[1,2-c]pyrimidine] |
|  | 0.016 µM | 0.132 µM | Clc1cccc(-c2nc(C3CCN(Cc4ccc(-c5ncn6ccnc6c5-c5ccccc5)cc4)CC3)n[nH]2)n1 [Example 13.0, 7-(4-{4-[5-(6-chloro-pyridin-2-yl)-1H-[1,2,4]triazol-3-yl]-piperidin-1-ylmethyl}-phenyl)-8-phenyl-imidazo[1,2-c]pyrimidine] |
|  | 0.007 µM | 0.016 µM | Cc1cc(C)nc(-c2nc(C3CCN(Cc4ccc(-c5ncn6ccnc6c5-c5ccccc5)cc4)CC3)n[nH]2)c1 [Example 14.0, 7-(4-{4-[5-(4,6-dimethyl-pyridin-2-yl)-1H-[1,2,4]triazol-3-yl]-piperidin-1-ylmethyl}-phenyl)-8-phenyl-imidazo[1,2-c]pyrimidine] |
|  | 0.022 µM | 0.222 µM | FC(F)(F)c1ccnc(-c2nc(C3CCN(Cc4ccc(-c5ncn6ccnc6c5-c5ccccc5)cc4)CC3)n[nH]2)c1 [Example 15.0, 8-phenyl-7-(4-{4-[5-(4-trifluoromethyl-pyridin-2-yl)-1H-[1,2,4]triazol-3-yl]-piperidin-1-ylmethyl}-phenyl)-imidazo[1,2-c]pyrimidine] |
|  | 0.012 µM | 0.052 µM | c1ccc(-c2c(-c3ccc(CN4CC(c5n[nH]c(-c6ccccn6)n5)C4)cc3)ncn3ccnc23)cc1 [Example 16.0, 8-phenyl-7-{4-[3-(5-pyridin-2-yl-1H-[1,2,4]triazol-3-yl)-azetidin-1-ylmethyl]-phenyl}-imidazo[1,2-c]pyrimidine] |
